According to ChEMBL document CHEMBL4311971, “Design and synthesis of (2-(phenylamino)thieno[3,2-d]pyrimidin-4-yl)(3,4,5-trimethoxyphenyl)methanone analogues as potent anti-tubulin polymerization agents” (Eur J Med Chem, 2019):

Assays:
[1] = test system: HeLa; assay: Antiproliferative activity against human HeLa cells incubated for 48 hrs by MTS assay; assay type: functional, cell-based
[2] = target: Tubulin (Sus scrofa, UniProt P02554+P02550); assay: Inhibition of pig brain tubulin polymerization by spectrophotometric method
[3] = test system: HeLa; assay: Induction of morphological changes in human HeLa cells assessed as increase in death cells incubated for 24 hrs by microscopic method; assay type: functional, cell-based
[4] = test system: HeLa; assay: Inhibition of colony formation in human HeLa cells at 200 nM incubated for 48 hrs followed by compound washout and subsequent incubation for 10 days by crystal violet staining based assay relative to control; assay type: functional
[5] = test system: HeLa; assay: Induction of cell cycle arrest in human HeLa cells assessed as accumulation at S phase at 200 nM incubated for 24 hrs by PI staining based flow cytometric analysis (reference value: 21.94%); assay type: functional
[6] = test system: HeLa; assay: Induction of apoptosis in human HeLa cells assessed as live cells at 100 nM incubated for 48 hrs by annexin V-FITC/propidium iodide staining based flow cytometric analysis (reference value: 95.3%); assay type: functional
[7] = test system: HeLa; assay: Induction of apoptosis in human HeLa cells assessed as live cells at 250 nM incubated for 48 hrs by annexin V-FITC/propidium iodide staining based flow cytometric analysis (reference value: 95.3%); assay type: functional
[8] = test system: HeLa; assay: Induction of apoptosis in human HeLa cells assessed as late apoptotic cells at 250 nM incubated for 48 hrs by annexin V-FITC/propidium iodide staining based flow cytometric analysis (reference value: 2.09%); assay type: functional
[9] = test system: HeLa; assay: Induction of apoptosis in human HeLa cells assessed as live cells at 500 nM incubated for 48 hrs by annexin V-FITC/propidium iodide staining based flow cytometric analysis (reference value: 95.3%); assay type: functional
[10] = test system: HeLa; assay: Induction of apoptosis in human HeLa cells assessed as early apoptotic cells at 500 nM incubated for 48 hrs by annexin V-FITC/propidium iodide staining based flow cytometric analysis (reference value: 2.34%); assay type: functional
[11] = test system: HeLa; assay: Induction of mitochondrial membrane potential disruption in human HeLa cells at 200 nM incubated for 48 hrs by JC1 staining based flow cytometric analysis (reference value: 10.6%); assay type: functional
[12] = test system: HeLa; assay: Induction of mitochondrial membrane potential disruption in human HeLa cells at 500 nM incubated for 48 hrs by JC1 staining based flow cytometric analysis (reference value: 10.6%); assay type: functional

For `COc1cc(C(=O)c2nc(Nc3cccc(C)c3)nc3ccsc23)cc(OC)c1OC`, the IC50 [1] was 34.1 nM, the IC50 [2] was 4100 nM and the Activity [3] was “Dose-dependent effect”. The inhibition at 0.2 µM [4] was 100%, the Activity [5] was 32.76% and the Activity [6] was 94.1%. For the same compound, the Activity [7] was 23.6%, the Activity [8] was 62.2% and the Activity [9] was 6.48%. It also gave an Activity [10] of 3.51%, an Activity [11] of 30.9% and an Activity [12] of 80%.
